Values quoted from earlier work in patent US20240226212A1, “GENOMIC SEQUENCES FOR YEAST PROBIOTICS” (Worcester Polytechnic Institute, priority 2023, published 2024).

Tested on: C. albicans

OCCc1c[nH]c2ccccc12 [tryptophol]
filamentation of C. albicans: shown to inhibit filamentation
